In patent publication US9776972B2, “Pyrazole derivatives as arginine methyltransferase inhibitors and uses thereof” (priority 2013, dated 2017) one finds IC50 data, which are given here for 21 compounds.

Sequence of human PRMT3 (O60678 with tags, fused parts or gaps): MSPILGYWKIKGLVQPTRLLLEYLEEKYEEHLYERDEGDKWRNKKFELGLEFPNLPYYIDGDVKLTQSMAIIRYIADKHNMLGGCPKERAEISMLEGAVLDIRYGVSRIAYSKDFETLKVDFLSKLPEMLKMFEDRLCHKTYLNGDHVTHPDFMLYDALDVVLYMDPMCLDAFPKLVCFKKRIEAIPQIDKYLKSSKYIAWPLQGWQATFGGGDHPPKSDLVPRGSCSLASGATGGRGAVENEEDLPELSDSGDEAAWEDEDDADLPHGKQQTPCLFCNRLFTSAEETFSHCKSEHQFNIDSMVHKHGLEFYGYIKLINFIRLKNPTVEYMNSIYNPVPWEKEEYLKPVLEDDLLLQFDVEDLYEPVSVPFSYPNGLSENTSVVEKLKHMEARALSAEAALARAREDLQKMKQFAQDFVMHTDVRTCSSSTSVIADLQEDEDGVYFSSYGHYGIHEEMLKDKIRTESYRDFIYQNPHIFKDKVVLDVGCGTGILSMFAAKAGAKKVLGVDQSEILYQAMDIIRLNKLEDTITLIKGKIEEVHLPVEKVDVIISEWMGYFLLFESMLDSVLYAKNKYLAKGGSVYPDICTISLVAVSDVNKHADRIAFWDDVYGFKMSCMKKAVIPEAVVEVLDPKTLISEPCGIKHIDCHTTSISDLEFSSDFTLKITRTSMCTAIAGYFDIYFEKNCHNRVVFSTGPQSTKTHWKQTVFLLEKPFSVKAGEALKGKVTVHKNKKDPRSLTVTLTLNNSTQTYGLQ

This assay has as its target human PRMT3 (Homo sapiens, UniProt O60678). The assay is described as follows: PRMT3 Biochemical Assay (3H-SAM Flashplate, peptide substrate). Particulars: single experiment or average of multiple experiments.
Broadly, the IC50 is the concentration that gives 50% inhibition. Turning to `CN(CCN)Cc1c[nH]nc1-c1ccc(OC(F)F)cc1` [Compound 94], half-maximal inhibition (IC50) required 5.37 µM.

Consider `CN(CCN)Cc1c[nH]nc1-c1ccc(Cl)cc1` [Compound 95], for which the IC50 worked out at 2.39 µM.

`CNCCN(C)Cc1cnn(CC2CCOCC2)c1-c1ccc(F)cc1` [Compound 12] returned an IC50 of more than 50 µM. Consider `Cc1ccc(-c2n[nH]cc2CN(C)CCN)c(Cl)c1` [Compound 90], for which the IC50 worked out at 6.97 µM. `CN(CCN)Cc1c[nH]nc1-c1ccc(Cl)cc1Cl` [Compound 86] came in with an IC50 of 5.82 µM. `CN(CCN)Cc1c[nH]nc1-c1ccc(F)cc1Cl` [Compound 89] gave an IC50 of 9.56 µM.

Compound `CN(CCN)Cc1c[nH]nc1-c1ccc(N2CCNCC2)cc1` [Compound 82] showed an IC50 of 1.59 µM. The value for `CC(C)Oc1ccc(-c2n[nH]cc2CN(C)CCN)cc1Cl` [Compound 168] was 3.91 µM; that for `CCN(CCNC)Cc1c[nH]nc1-c1ccc(F)cc1` [Compound 9] was 3.16 µM.

The compound `CN(CCN)Cc1c[nH]nc1-c1ccc(F)cc1` [Compound 1] registered an IC50 of 2.65 µM. `CNCCN(C)Cc1c[nH]nc1-c1cccc(NC(C)=O)c1` [Compound 42] gave an IC50 of 2.55 µM. In the case of `CC(C)Oc1ccc(-c2n[nH]cc2CN(C)CCN)cc1` [Compound 67], the IC50 was found to be 4.58 µM. The figure for `Cc1ccc(-c2n[nH]cc2CN(C)CCN)c(C)c1` [Compound 88] is 8.08 µM; for `CNCCN(C)Cc1c[nH]nc1-c1ccc(-c2ccccc2)cc1` [Compound 47] it is 0.53 µM.

Take `CNCCN(C)Cc1c[nH]nc1-c1cccc(N)c1` [Compound 32]: the IC50 was determined as 2.76 µM. On to `CN(CCN)Cc1c[nH]nc1-c1ccc(C(F)(F)F)cc1` [Compound 92], for which the IC50 came out at 3.14 µM. In turn, `CNCCN(C)Cc1cnn(C)c1-c1ccc(F)cc1` [Compound 10] showed an IC50 of 13.4 µM. `CN(CCN)Cc1cn(C2COC2)nc1-c1ccc(F)cc1` [Compound 77] came in with an IC50 of 6.29 µM. The compound `CN(CCN)Cc1c[nH]nc1-c1ccc(OC(F)(F)F)cc1` [Compound 93] registered a 50% inhibitory concentration (IC50) of 3.61 µM. Compound `CNCCN(C)Cc1c[nH]nc1-c1cccc(C(C)=O)c1` [Compound 44] registered an IC50 of 3.44 µM. Consider `CN(CCN)Cc1cn(C)nc1-c1ccc(F)cc1` [Compound 3], for which the half-maximal inhibitory concentration (IC50) was 25.5 µM.
